Measured values published in US20200385371A1 (Propellon Therapeutics Inc., priority 2017, published 2020).
pEC50, pIC50, pKd: −log10 of the molar value. Where a name gives a salt, the structure may show the parent alone. Read-outs that look alike come from different tables or passages of the source.

How the values were obtained:
[1] = target: T1, WDR5 (Homo sapiens, UniProt P61964); test: Fluorescence Polarization (FP) binding assay
Experimental: H3 (1-15) ([…]), and 9-Ala-FAM ((Ac)-[…]-(Ahx-Ahx)-K(5,6-FAM)) (where Ahx represents 6 amino hexanoic acid linkers) peptides for WDR5 were synthesized, N-terminal-labeled with isothiocyanate-fluorescein, and purified by Tufts University Core Services (Boston, Mass.). Compound binding assays were performed at a constant labeled peptide concentration of 30 or 20 nM for H3 (1-15) and 9-Ala-FAM respectively. WDR5 concentrations of 0.3 μM for H3 (1-15) and 0.05 μM for 9-Ala-FAM were used. For both the H3 (1-15) and 9-Ala-FAM peptides, 80 mM sodium phosphate buffer (pH 6.5), 20 mM KCl, and 0.008% Triton X-100 was used. For the H3 (1-15) peptide, FP assays were measured in 10 μl aliquots in 384-well Axygen plates using a Synergy 4 microplate reader (BioTek) with an excitation wavelength of 485 nm and emission wavelength of 528 nm. For the 9-Ala-FAM peptide, FP assays were measured in 125 μl aliquots in 96 well Microfluor plates using a ViewLux instrument (Perkin Elmer) with an excitation wavelength of 480 nm and emission wavelength of 540 nm. To determine Kdsp values, the data were fit to a hyperbolic function using Sigma Plot software (Systat Software). The Kdisp values represent the average of quadruplicate measurements.

[2] = target: T1, WDR5; test: Surface Plasmon Resonance (SPR) assay; format: binding; parameters: Full length WDR5 with an N-terminal His tag and C-terminal AviTag; His tag (N); made in house; host or cells: E. coli
Experimental: Exemplary compounds of the application were dissolved in 100% DMSO at 10 mM, assayed fresh, and then stored at −20° C. for repeat studies and other experiments. Full length WDR5 with an N-terminal His tag and C-terminal AviTag (Avidity Inc.) was expressed in E. coli with coexpression of BirA to biotin label the protein in vivo. Purification was via Ni-NTA.
SPR studies were performed using a Biacore™ T200 instrument (GE Health Sciences Inc.). Biotinylated WDR5 protein (approximately 3000RU) was stably captured to streptavidin coupled SA chips according to the manufacture's protocol (GE Health Sciences Inc.). The running buffer used was HBS-EP (20 mM Hepes pH 7.4, 150 mM NaCl, 3 mM EDTA, 0.05% P-20) plus 5% DMSO with a flow rate of 40 μl/min. For SPR analysis, 5 different concentrations of each exemplary compound of the application were sprayed into 96 or 384 well plates using an HP D300 digital dispenser. The concentration ranged from about 195 nM to about 12 nM in a two-fold series. […] Curve fitting and KD calculations were performed with the Biacore T200 Evalutation software (GE Health Sciences Inc).

[3] = test system: MV4-11 cells; test: Cell proliferation assay (ATPlite); format: cell-based; conditions: Homo sapiens; for pEC50: 120 h, MV4-11 cells, five days, read-out: GI MV411 EC50; for pIC50: MV4-11, Table 2
Experimental: MV4-11 cells were seeded into a 96-well plate at 1,000 cells/well in 150 μl medium (Alpha-MEM containing 10% FBS, 100 μg/ml Normocin, and 50 μg/ml Gentamycin, Invitrogen). A HP D300 digital dispenser was used to dose cells with DMSO or test compounds across a 10-point range of concentrations (high dose of 10 μM), and cultures were grown in a humidified 5% CO2 incubator at 37° C. After five days, plates were removed from incubator and equilibrated to room temperature. An equal volume of ATPlite assay reagent was added to each well, and samples were processed according to manufacturer's instructions (Perkin Elmer). Luminescent signal was measured using an Envision plate reader equipped with a US-Luminescence detector.

| Compound | pIC50 [1] | pKd ([2]; read-out: SPR Kd) | pEC50 [3] | pIC50 [3] | pKd ([2]; Table 2, effect of difluoro substitution, read-out: KD (SPR)) |
| --- | --- | --- | --- | --- | --- |
| C[C@H]1CN(c2cc(F)c(-c3ccc(N4CCOCC4)nc3)c(F)c2NC(=O)c2ccc(F)cc2C(F)F)CCN1C [Example 180, (S)-2-(Difluoromethyl)-N-(6-(3,4-dimethylpiperazin-1-yl)-2,4-difluoro-3-(6-morpholinopyridin-3-yl)phenyl)-4-fluorobenzamide] | 7.65 | 8.60 | 6.70 | – | – |
| C[C@H]1CN(c2cc(F)c(C3=CCCN(c4ncccn4)C3)c(F)c2NC(=O)c2c[nH]c(=O)cc2C(F)F)CCN1C [Example 54, (S)-4-(difluoromethyl)-N-(6-(3,4-dimethylpiperazin-1-yl)-2,4-difluoro-3-(1-(pyrimidin-2-yl)-1,2,5,6-tetrahydropyridin-3-yl)phenyl)-6-oxo-1,6-dihydropyridine-3-carboxamide] | 7.54 | 8.42 | 6.16 | – | – |
| C[C@@H]1CN(c2cc(F)c(-c3ccc(C(N)=O)c(F)c3)c(F)c2NC(=O)c2c[nH]c(=O)cc2C(F)(F)F)C[C@H](C)N1C [Example 25, N-(4′-carbamoyl-2,3′,6-trifluoro-4-((3S,5R)-3,4,5-trimethylpiperazin-1-yl)-[1,1′-biphenyl]-3-yl)-6-oxo-4-(trifluoromethyl)-1,6-dihydropyridine-3-carboxamide] | 7.71 | 8.69 | 6.83 | – | – |
| C[C@@H]1CN(c2cc(F)c(-c3cnc(N4CCOCC4)nc3)c(F)c2NC(=O)c2cn(C)c(=O)cc2C(F)F)C[C@H](C)N1C [Example 40, N-(2,4-difluoro-3-(2-morpholinopyrimidin-5-yl)-6-((3S,5R)-3,4,5-trimethylpiperazin-1-yl)phenyl)-4-(difluoromethyl)-1-methyl-6-oxo-1,6-dihydropyridine-3-carboxamide] | 7.70 | 8.55 | 6.54 | – | – |
| C[C@H]1CN(c2ncc(-c3c(F)cc(N4CCN(C)[C@@H](C)C4)c(NC(=O)c4c[nH]c(=O)cc4C(F)F)c3F)cn2)CCO1 [Example 126, 4-(Difluoromethyl)-N-(6-((S)-3,4-dimethylpiperazin-1-yl)-2,4-difluoro-3-(2-((S)-2-methylmorpholino)pyrimidin-5-yl)phenyl)-6-oxo-1,6-dihydropyridine-3-carboxamide] | 7.93 | 9.25 | 7.93 | – | – |
| C[C@H]1CN(c2cc(F)c(C3=CCCN(c4ncc(F)cn4)C3)c(F)c2NC(=O)c2c[nH]c(=O)cc2C(F)F)CCN1C [Example 83, (S)-4-(difluoromethyl)-N-(6-(3,4-dimethylpiperazin-1-yl)-2,4-difluoro-3-(1-(5-fluoropyrimidin-2-yl)-1,2,5,6-tetrahydropyridin-3-yl)phenyl)-6-oxo-1,6-dihydropyridine-3-carboxamide] | 7.81 | 8.94 | 6.42 | – | – |
| C[C@H]1CN(c2cc(F)c(-c3ccc4c(c3)OCCO4)c(F)c2NC(=O)c2c[nH]c(=O)cc2C(F)(F)F)CCN1C [Example 185, (S)—N-(3-(2,3-dihydrobenzo[b][1,4]dioxin-6-yl)-6-(3,4-dimethylpiperazin-1-yl)-2,4-difluorophenyl)-6-oxo-4-(trifluoromethyl)-1,6-dihydropyridine-3-carboxamide] | 7.58 | 8.89 | 6.77 | – | – |
| C[C@H]1CN(c2cc(F)c(C3=CCCN(c4ncc(F)cn4)C3)c(F)c2NC(=O)c2c[nH]c(=O)cc2C(F)(F)F)CCN1C [Example 84, (S)—N-(6-(3,4-dimethylpiperazin-1-yl)-2,4-difluoro-3-(1-(5-fluoropyrimidin-2-yl)-1,2,5,6-tetrahydropyridin-3-yl)phenyl)-6-oxo-4-(trifluoromethyl)-1,6-dihydropyridine-3-carboxamide] | 7.78 | 8.84 | 6.79 | – | – |
| C[C@@H]1CN(c2cc(F)c(-c3ccc(C(=O)NC(C)(C)CC(C)(C)C)c(F)c3F)c(F)c2NC(=O)c2c[nH]c(=O)cc2C(F)(F)F)C[C@H](C)N1C [Example 27, 6-Oxo-N-(2,2′,3′,6-tetrafluoro-4′-((2,4,4-trimethylpentan-2-yl)carbamoyl)-4-((3S,5R)-3,4,5-trimethylpiperazin-1-yl)-[,1′-biphenyl]-3-yl)-4-(trifluoromethyl)-1,6-dihydropyridine-3-carboxamide] | 7.46 | 8.95 | 6.66 | – | – |
| C[C@H]1CN(c2ncc(-c3c(F)cc(N4CCN(C)[C@@H](C)C4)c(NC(=O)c4ccc(F)cc4C(F)(F)F)c3F)cn2)C[C@H](C)O1 [Example 166, N-(3-(2-((2S,6S)-2,6-dimethylmorpholino)pyrimidin-5-yl)-6-((S)-3,4-dimethylpiperazin-1-yl)-2,4-difluorophenyl)-4-fluoro-2-(trifluoromethyl)benzamide Formic Acid Salt] | 7.93 | 9.14 | 7.20 | – | – |
| C[C@@H]1CN(c2ccc(-c3c(F)cc(N4CCN(C)[C@@H](C)C4)c(NC(=O)c4ccc(F)cc4C(F)F)c3F)cn2)CCO1 [Example 177, 2-(Difluoromethyl)-N-(6-((S)-3,4-dimethylpiperazin-1-yl)-2,4-difluoro-3-(6-((R)-2-methylmorpholino)pyridin-3-yl)phenyl)-4-fluorobenzamide] | 7.64 | 8.76 | 7.00 | – | – |
| C[C@@H]1CN(c2ncc(-c3c(F)cc(N4CCN(C)[C@@H](C)C4)c(NC(=O)c4ccc(F)cc4C(F)(F)F)c3F)cn2)C[C@@H](C)O1 [Example 167, N-(3-(2-((2R,6R)-2,6-dimethylmorpholino)pyrimidin-5-yl)-6-((S)-3,4-dimethylpiperazin-1-yl)-2,4-difluorophenyl)-4-fluoro-2-(trifluoromethyl)benzamide Formic Acid Salt] | 7.94 | 9.18 | 7.12 | – | – |
| CNC(=O)c1ccc(-c2c(F)cc(N3C[C@@H](C)N(C)[C@@H](C)C3)c(NC(=O)c3c[nH]c(=O)cc3C(F)(F)F)c2F)cc1F [Example 24, 6-Oxo-N-(2,3′,6-trifluoro-4′-(methylcarbamoyl)-4-((3S,5R)-3,4,5-trimethylpiperazin-1-yl)-[1,1′-biphenyl]-3-yl)-4-(trifluoromethyl)-1,6-dihydropyridine-3-carboxamide] | 7.60 | 8.52 | 7.00 | – | – |
| C[C@@H]1CN(c2cc(F)c(-c3cnc(N4CCOCC4)nc3)cc2NC(=O)c2c[nH]c(=O)cc2C(F)(F)F)C[C@H](C)N1C [reference compound] | – | – | – | 7.60 | – |
| CC(C)OC(=O)N1CCC=C(c2c(F)cc(N3C[C@@H](C)N(C)[C@@H](C)C3)c(NC(=O)c3c[nH]c(=O)cc3C(F)F)c2F)C1 [Example 23, Isopropyl 5-(3-(4-(difluoromethyl)-6-oxo-1,6-dihydropyridine-3-carboxamido)-2,6-difluoro-4-((3S,5R)-3,4,5-trimethylpiperazin-1-yl)phenyl)-3,6-dihydropyridine-1(2H)-carboxylate] | 7.50 | 8.55 | – | – | – |
| C[C@@H]1CN(c2cc(F)c(C3=CCCN(c4ncccn4)C3)c(F)c2NC(=O)c2c[nH]c(=O)cc2C(F)(F)F)C[C@H](C)N1C [Example 15, N-(2,4-difluoro-3-(1-(pyrimidin-2-yl)-1,2,5,6-tetrahydropyridin-3-yl)-6-((3S,5R)-3,4,5-trimethylpiperazin-1-yl)phenyl)-6-oxo-4-(trifluoromethyl)-1,6-dihydropyridine-3-carboxamide] | 7.68 | 8.77 | – | – | – |
| C[C@@H]1CN(c2c(F)cc(-c3cnc(N4CCOCC4)nc3)cc2NC(=O)c2c[nH]c(=O)cc2C(F)(F)F)C[C@H](C)N1C [reference compound] | – | – | – | 5.45 | 7.11 |
